Results taken from publication PMC8206213, “An L-2-hydroxyglutarate biosensor based on specific transcriptional regulator LhgR” (Nature Communications, 2021).
Where “and” joins values, the source holds several entries; their conditions need not be identical. Identical values can stand only once.

How the values were obtained:
[1] = tested on: LhgO; assay: Enzymatic assay of LhgO in crude extracts of P. putida KT2440 derivatives grown on different carbon sources (induction of lhgO under LhgR control); format: cell-based, Pseudomonas putida; conditions: for Induction of lhgO expression / effector molecule of LhgR: gene segment F2-lhgR-F1-lhgO in P. putida KT2440 derivatives
Protocol: The cells were harvested at mid-log phase, washed twice and resuspended in phosphate-buffered saline (PBS), then lysed by sonication on ice after the addition of 1 mM phenylmethylsulfonyl fluoride (PMSF). […] Protein concentrations of the supernatants were determined using the Bradford protein assay kit (Sangon, China). […] The 800 μL reaction solution contained 0.1 mM […], 0.05 mM DCPIP, 0.2 mM phenazine methosulfate (PMS) in PBS and 40 μL crude extracts.

[2] = tested on: LHGFR0N3C expressed in E. coli BL21(DE3); assay: Specificity of LHGFR0N3C expressed in E. coli BL21(DE3), 1 mM compounds; format: cell-based; conditions: for Emission ratio: 1 mM compound, Fig. 5c; for Increase of the emission ratio in E. coli BL21(DE3): 1 mM exogenous compound
Protocol: To characterize the sensitivity and specificity of LHGFR expressed in E. coli BL21(DE3), 90 μL cell suspensions following 8 h carbon starvation were mixed with 10 μL increasing concentrations of L-2-HG or other compounds, and then added into a black 96-well plate (total 100 μL/per well), the fluorescence intensities were determined using an EnSight microplate reader (PerkinElmer, USA) and the following instrument settings: excitation at 430 nm, emission at 485 nm (mTFP) and 528 nm (Venus), time intervals of 5 min, the temperature at 37 °C, and shake at 180 rpm.

[3] = crude extract of DcsiRDlhgO-pME6032 grown in MSM with the compound as sole carbon source
[4] = crude extract of DcsiRDcsiDDlhgO-pME6032-F2-lhgR-F1-lhgO grown with the compound as sole carbon source
[5] = crude extract of DcsiRDlhgO-pME6032-F2-lhgR-F1-lhgO grown with the compound as sole carbon source

Structure (SMILES) | Induction of lhgO expression / effector molecule of LhgR [1] | Emission ratio ([2]; 0 min) | Emission ratio ([2]; 5 min) | Emission ratio ([2]; 10 min) | Emission ratio ([2]; 15 min) | Emission ratio ([2]; 20 min) | Emission ratio ([2]; 25 min) | Emission ratio ([2]; 30 min) | Emission ratio ([2]; 35 min) | Emission ratio ([2]; 40 min) | Emission ratio ([2]; 45 min) | Emission ratio ([2]; 50 min) | Emission ratio ([2]; 55 min) | Emission ratio ([2]; 60 min) | Emission ratio ([2]; 65 min) | Emission ratio ([2]; 70 min) | Emission ratio ([2]; 75 min) | Emission ratio ([2]; 80 min) | Emission ratio ([2]; 85 min) | Emission ratio ([2]; 90 min) | further results
O=C(O)CC[C@@H](O)C(=O)O [D-2-HG] | neither D-2-HG nor glutarate can serve as the effector molecule of LhgR | 1.011 and 0.989 and 0.9926 | 1.03 and 1.001 and 1.013 | 1.043 and 1.03 and 1.027 | 1.0445 and 1.033 and 1.032 | 1.062 and 1.044 and 1.049 | 1.051 and 1.047 and 1.058 | 1.07 and 1.05 and 1.058 | 1.071 and 1.055 and 1.07 | 1.061 and 1.059 and 1.064 | 1.071 and 1.057 and 1.074 | 1.071 and 1.056 and 1.075 | 1.074 and 1.067 and 1.073 | 1.07 (2×) and 1.065 | 1.082 (2×) and 1.064 | 1.08 and 1.068 and 1.078 | 1.08 and 1.07 and 1.0822 | 1.068 and 1.078 and 1.077 | 1.078 and 1.065 and 1.085 | 1.07 and 1.071 and 1.074 | LhgO activity [1, 3]: 7.06E-04 and 6.93E-04 and 7.09E-04; Increase of the emission ratio in E. coli BL21(DE3) [2]: could not
O=C(O)CCCC(=O)O [Glutarate, glutarate] | neither D-2-HG nor glutarate can serve as the effector molecule of LhgR | 1.019 and 1.014 and 1.009 | 1.014 and 1.015 and 0.998 | 1.024 and 1.012 (2×) | 1.024 and 1.01 and 1.013 | 1.025 and 1.007 and 1.004 | 1.02 and 1.008 and 1.012 | 1.022 and 1.0136 and 1.013 | 1.0109 and 1.008 and 1.004 | 1.017 and 1.002 and 1.012 | 1.022 and 1.0116 and 1.014 | 1.01 and 1 and 1.016 | 1.008 and 1.012 and 1.02 | 1.014 and 1.01 and 1.011 | 1.021 and 1.007 and 1.017 | 1.032 and 1.006 and 1.011 | 1.016 and 1.008 and 1.028 | 0.9989 and 1.018 and 1.024 | 1.011 and 1.013 and 1.026 | 1.005 and 1.016 and 1.027 | LhgO activity [1, 4]: no activity of LhgO was detected; LhgO activity [1, 5]: 0.02427 and 0.01721 and 0.01877; LhgO activity ([1]; crude extract of DcsiRDlhgO-pME6032-F2-lhgR-F1-lhgO grown with the compound as sole carbon source, listed as glutarate): activity of LhgO was also detected; LhgO activity [1, 3]: 7.09E-04 and 9.66E-04 and 0.00113; Increase of the emission ratio in E. coli BL21(DE3) [2]: could not
O=C(O)CC[C@H](O)C(=O)O [L-2-HG, L-2-Hydroxyglutarate] | can induce the expression of lhgO | 1.025 and 0.9964 and 0.9897 | 1.0102 and 1.019 and 1.007 | 1.0776 and 1.069 and 1.057 | 1.152 and 1.136 and 1.118 | 1.219 and 1.203 and 1.181 | 1.256 and 1.2441 and 1.233 | 1.305 and 1.29 and 1.273 | 1.298 and 1.29 and 1.292 | 1.314 and 1.317 and 1.304 | 1.326 and 1.316 and 1.3122 | 1.332 and 1.331 and 1.305 | 1.343 and 1.33 and 1.32 | 1.3375 and 1.331 and 1.312 | 1.326 and 1.339 and 1.336 | 1.339 and 1.343 and 1.334 | 1.32 and 1.336 and 1.325 | 1.332 and 1.339 and 1.343 | 1.326 and 1.34 and 1.332 | 1.323 and 1.316 and 1.34 | LhgO activity [1, 4]: 0.02147 and 0.02016 and 0.02474; LhgO activity ([1]; crude extract of DcsiRDcsiDDlhgO-pME6032 grown with the compound as sole carbon source): 0.00119 and 0.00104 and 0.00167; LhgO activity [1, 5]: 0.02241 and 0.0245 and 0.02829; Increase of the emission ratio in E. coli BL21(DE3) [2]: could significantly increase the emission ratio
